Holding throughout (experiment): Inhibition of in vitro proliferation of tumor cells by PBD compounds (CTG)
Holding throughout (format): cell-based

Assay [1] relates to MKN45 (human gastric cancer cells). Particulars: MKN-45, 144 h, 6 days of culture. How it is done: (§1) The objective of this assay is to measure the activity of the compounds of the present disclosure in inhibiting the proliferation of different tumor cell lines: SK-BR-3 tumor cells (human breast cancer cells, ATCC, Cat. No. HTB-30), NCI-H23 (human non-small cell lung cancer cells, Nanjing Cobioer, Cat. No. CBP60132), and MKN45 (human gastric cancer cells, Nanjing Cobioer, Cat. No. CBP60488). The cells were treated in vitro with different concentrations of the compounds. After 6 days of culture, the proliferation of the cells was measured using CTG (CellTiter-Glo® Luminescent Cell Viability Assay, Promega, Cat. No. G7573) reagent, and the in vitro activity of the compounds was evaluated based on their IC50 values.
(§2) • 1. Cell culture: SK-BR-3, NCI-H23, and MKN45 cells were separately cultured in McCoy's 5A medium (ThermoFisher, Cat. No. 16600108) and RPMI 1640 medium (ThermoFisher, Cat. No. 11875119) containing 10% FBS (Gibco, 10099-141). • 2. Cell plating: After being digested with trypsin (0.25% Trypsin-EDTA (1×), Life Technologies, Cat. No. 25200-072), the SK-BR-3, NCI-H23, and MKN45 were resuspended in their respective media and counted. The density was adjusted to 1.48×10^4 cells/mL, and the cells were plated onto 96-well plates (corning, Cat. No. 3903) at 135 μL/well, i.e., 2000 cells/well, and cultured at 37° C. for 24 h. • 3. Drug formulation: PBD drugs were formulated in round-bottom 96-well plates. Plate 1: In the first column, the concentration was 0.05 mM; in the second column through the fourth column, a 3-fold serial dilution was performed in DMSO; in the fifth column through the sixth column, a 5-fold serial dilution was performed in DMSO; in the seventh column through the ninth column, a 10-fold serial dilution was performed in DMSO; and the tenth column contained DMSO. Plate 2: Corresponding media were added to the first column through the tenth column at 196 μL/well; 4 μL of solution was transferred from each well of the first column through the tenth column of plate 1 to plate 2 and well mixed with the medium; 15 μL of the mixture was added to the cells plated the day before, and the cells were cultured at 37° C. for another 6 days. • 4. CTG assay: The cell culture plates were taken out and equilibrated to room temperature. CTG was added at 75 μL/well, and the plates were incubated at room temperature in the dark for 10 min. Then luminescence values were measured on a microplate reader (BMG labtech, PHERAstar FS).

The subject of assay [2] is NCI-H23 (human non-small cell lung cancer cells). Particulars: 144 h, 6 days of culture. The protocol: as §1, §2
The subject of assay [3] is SK-BR-3 tumor cells (human breast cancer cells). Particulars: 144 h, 6 days of culture. The protocol:
as §1, §2

Each structure is given as a SMILES string.

A word on the IC50: it is the concentration that inhibits the measured activity by half. A lower IC50 goes with inhibition by little substance.

`COc1cc2c(cc1OCCCCCOc1cc3c(cc1OC)C(=O)N1C=C(c4ccc(N5CCN(C[C@H](O)CO)CC5)cc4)C[C@H]1CN3)N=C[C@@H]1CC3(CC3)CN1C2=O` [2-33, (S)-8-((5-(((S)-2-(4-(4-((S)-2,3-Dihydroxypropyl)piperazin-1-yl)phenyl)-7-methoxy-5-oxo-5,10,11,11a-tetrahydro-1H-benzo[e]pyrrolo[1,2-a][1,4]diazepin-8-yl)oxy)pentyl)oxy)-7-methoxy-1,11a-dihydro-3H,5H-spiro[benzo[e]pyrrolo[1,2-a][1,4]diazepine-2,1′-cyclopropan]-5-one]: the values for the half-inhibitory concentration (IC50) in assay [1], in assay [2] and in assay [3] were 0.38 nM, 0.3 nM and 0.73 nM, respectively.
The matching figures for `COc1cc2c(cc1OCCCCCOc1cc3c(cc1OC)C(=O)N1C=C(c4ccc(C5CCOCC5)cc4)C[C@H]1CN3)N=C[C@@H]1CC3(CC3)CN1C2=O` [2-5, (S)-7-Methoxy-8-((5-(((S)-7-methoxy-5-oxo-2-(4-(tetrahydro-2H-pyran-4-yl)phenyl)-5,10,11,11a-tetrahydro-1H-benzo[e]pyrrolo[1,2-a][1,4]diazepin-8-yl)oxy)pentyl)oxy)-1,11a-dihydro-3H,5H-spiro[benzo[e]pyrrolo[1,2-a][1,4]diazepine-2,1′-cyclopropan]-5-one]: 0.91 nM, 0.41 nM and 1.84 nM.
The matching figures for `COc1cc2c(cc1OCCCCCOc1cc3c(cc1OC)C(=O)N1C=C(c4ccc(C5CCN(CCO)CC5)cc4)C[C@H]1CN3)N=C[C@@H]1CC3(CC3)CN1C2=O` [2-9, (S)-8-((5-(((S)-2-(4-(1-(2-Hydroxyethyl)piperidin-4-yl)phenyl)-7-methoxy-5-oxo-5,10,11,11a-tetrahydro-1H-benzo[e]pyrrolo[1,2-a][1,4]diazepin-8-yl)oxy)pentyl)oxy)-7-methoxy-1,11a-dihydro-3H,5H-spiro[benzo[e]pyrrolo[1,2-a][1,4]diazepine-2,1′-cyclopropan]-5-one]: 0.19 nM, 0.23 nM and 1.25 nM.
The matching figures for `COc1ccc(C2=CN3C(=O)c4cc(OC)c(OCc5cncc(COc6cc7c(cc6OC)C(=O)N6CC8(CC8)C[C@H]6C=N7)c5)cc4NC[C@@H]3C2)cc1` [2-29]: 0.02 nM, 0.02 nM and 0.08 nM.
In the case of `COc1ccc(C2=CN3C(=O)c4cc(OC)c(OCCCCCOc5cc6c(cc5OC)C(=O)N5[C@H](C=N6)C[C@@H]6C[C@@H]65)cc4NC[C@@H]3C2)cc1` [2-21, (1aS,9aS,10aS)-5-Methoxy-6-((5-(((S)-7-methoxy-2-(4-methoxyphenyl)-5-oxo-5,10,11,11a-tetrahydro-1H-benzo[e]pyrrolo[1,2-a][1,4]diazepin-8-yl)oxy)pentyl)oxy)-1a,9a,10,10a-tetrahydrobenzo[e]cyclopropa[4,5]pyrrolo[1,2-a][1,4]diazepin-3(1H)-one], the concentration for half-maximal inhibition (IC50) in assay [1] worked out at 0.57 nM; in assay [2], 0.12 nM; in assay [3] it was 0.28 nM.
The like results for `COc1ccc(C2=CN3C(=O)c4cc(OC)c(OCCOCCOc5cc6c(cc5OC)C(=O)N5CC7(CC7)C[C@H]5C=N6)cc4NC[C@@H]3C2)cc1` [2-26, (S)-7-Methoxy-8-(2-(2-(((S)-7-methoxy-2-(4-methoxyphenyl)-5-oxo-5,10,11,11a-tetrahydro-1H-benzo[e]pyrrolo[1,2-a][1,4]diazepin-8-yl)oxy)ethoxy)ethoxy)-1,11a-dihydro-3H,5H-spiro[benzo[e]pyrrolo[1,2-a][1,4]diazepine-2,1′-cyclopropan]-5-one] were, in that order, 2.42 nM, 2.98 nM and 2.12 nM.

The values are drawn from US20250000989A1, “PYRROLO BENZODIAZEPINE DERIVATIVE, AND CONJUGATE, PREPARATION METHOD AND USE THEREOF” (priority 2021, published 2025).
